Drawing on ChEMBL document CHEMBL3352719 (Bioorg Med Chem, 2014), this text covers EC50 and CC50 for 16 compounds.

SMILES strings stand for the structures.

The nature of one data set: cells. The conditions noted are these: Influenza A virus, MDCK, 48 h.
The nature of data set [1]: Cytotoxicity against human 293T cells after 48 hrs by CellTiter96 assay. In kind it is cell-based, HEK-293T.
Data set [2] in a line: Cytotoxicity against MDCK cells after 48 hrs by CellTiter96 assay. In kind it is cell-based, Canis lupus familiaris. To be noted: dog.

As a reminder, the EC50 is the concentration needed to bring the measured effect to its halfway point. In “cells”, `CCC(CC)O[C@@H]1C=C(C(=O)NO)C[C@H](N)[C@H]1NC(C)=O` returned an EC50 of 359 nM. In turn, `CCC(CC)O[C@@H]1C=C(C(=O)NOC)C[C@H](N)[C@H]1NC(C)=O` yielded an EC50 in the data set “cells” of 127 nM. Consider `CCC(CC)O[C@@H]1C=C(C(=O)NOCc2ccccc2)C[C@H](N)[C@H]1NC(C)=O`, for which, in “cells”, the response was half-maximal at 72.4 nM (EC50). With `CCC(CC)O[C@@H]1C=C(C(=O)NOCCCc2cc3ccccc3[nH]2)C[C@H](N)[C@H]1NC(C)=O`, in “cells”, the response was half-maximal at 60.1 nM (EC50). The CC50 is the concentration giving 50% cytotoxicity. Take `CCC(CC)O[C@@H]1C=C(C(=O)NOC)C[C@H](NC(=N)N)[C@H]1NC(C)=O`: the EC50 in “cells” turned out to be 71.7 nM. Besides, the CC50 at 48 h in data set [1] and in data set [2] was over 100000 nM throughout.

In turn, `CCC(CC)O[C@@H]1C=C(C(=O)NOCc2ccccc2)C[C@H](NC(=N)N)[C@H]1NC(C)=O` had an EC50 in “cells” of 23.8 nM. In other words, the double-digit nanomolar range. `CCC(CC)O[C@@H]1C=C(C(=O)NOCCCc2cc3ccccc3[nH]2)C[C@H](NC(=N)N)[C@H]1NC(C)=O` showed an EC50 in the data set “cells” of 90.7 nM. The CC50 at 48 h in data set [1] and in data set [2] was over 100000 nM throughout.

For `CCC(CC)O[C@@H]1C=C(C(=O)NS(C)(=O)=O)C[C@H](N)[C@H]1NC(C)=O`, the EC50 in the data set “cells” came out at 401 nM. In turn, `CCC(CC)O[C@@H]1C=C(C(=O)NS(=O)(=O)C(F)(F)F)C[C@H](N)[C@H]1NC(C)=O` registered an EC50 in “cells” of 2220 nM. Against the preceding compound, the EC50 is about 5.5-fold higher.

`CCCCS(=O)(=O)NC(=O)C1=C[C@@H](OC(CC)CC)[C@H](NC(C)=O)[C@@H](N)C1` gave an EC50 in “cells” of 1980 nM. The same measure, in the same setting: with `CCC(CC)O[C@@H]1C=C(C(=O)NS(=O)(=O)c2ccccc2)C[C@H](N)[C@H]1NC(C)=O` the figure was 7490 nM. For `CCC(CC)O[C@@H]1C=C(C(=O)NS(C)(=O)=O)C[C@H](NC(=N)N)[C@H]1NC(C)=O`, in the data set “cells”, the EC50 is 59.1 nM. For the same compound, the CC50 at 48 h in data set [1] and in data set [2] was over 100000 nM each time.

In “cells”, `CCC(CC)O[C@@H]1C=C(C(=O)NS(=O)(=O)C(F)(F)F)C[C@H](NC(=N)N)[C@H]1NC(C)=O` had an EC50 of 484 nM. In other words, the sub-micromolar range. `CCCCS(=O)(=O)NC(=O)C1=C[C@@H](OC(CC)CC)[C@H](NC(C)=O)[C@@H](NC(=N)N)C1` returned an EC50 in the data set “cells” of 261 nM. This EC50 lies about 1.9-fold lower than the previous one. Still for that read-out and setting: under `CCC(CC)O[C@@H]1C=C(C(=O)NS(=O)(=O)c2ccccc2)C[C@H](NC(=N)N)[C@H]1NC(C)=O` stands 593 nM. On the same count and under the same terms, under `CCC(CC)O[C@@H]1C=C(C(=O)O)C[C@H](N)[C@H]1NC(C)=O` [OSELTAMIVIR CARBOXYLATE] stands 28.2 nM.
